Test results reported in US6927208B1, “Cyclosporin with improved activity profile” (Debiopharm S.A., priority 1998, dated 2005).

Tests used:
[1] = tested on: Balb/c mouse spleen cells stimulated with treated CBA mouse spleen cells; assay: mixed lymphocyte reaction (MLR), immunosuppressive activity; type: cell-based, mice; details: 5 days, greater than 1.0 = less active than CsA, >20 = not immunosuppressive
Protocol: Cs is regarded as being immunosuppressive if its activity in the mixed lymphocyte reaction (MLR) is greater than 5%. The reaction (MLR) is described by T. Meo in “Immunological Methods”, L. Lefkovits and […]: 227-239 (1979). Spleen cells (0.5.10^6) originating from Balb/c mice (female, 8 to 10 weeks) are co-incubated for 5 days in the presence of treated spleen cells originating from CBA mice (females, 8 to 10 weeks). These cells were treated with mitomycin C or were irradiated at 2000 rads. […] The IC50 calculated in the MLR test is compared with the IC50 corresponding to CsA in a parallel experiment.

cyclophilin A = cyclophilin A (Homo sapiens, UniProt P62937); assay: competitive ELISA test, affinity of Cs derivatives for cyclophilin A; type: binding; details: 1.0 = binds as well as CsA, lower than 1.0 = binds better
Protocol: The results of Table 1 show the affinity of the derivatives of Cs for cyclophilin A in a competitive ELISA test described by Quesniaux in Eur. J. Immunology 1987, 17, 1359-1365. In this test, during incubation with cyclophilin, Cs bound to BSA (serum albumin) is added to the Cs to be tested. The concentration required to obtain 50% inhibition (IC50) of the reference reaction in the absence of competitor is then calculated. The results are expressed by the binding index BI which is the ratio of the IC50 of the derivative and the IC50 of CsA.

HIV in CEM-SS cell line = assay: protection during infection with HIV of a CEM-SS cell line (measured by the NCI); type: cell-based; details: mean value at a derivative concentration of 2×10^−6 molar, compared with infection in the absence of Cs
Protocol: The protection of this line in the presence of a Cs derivative is compared with the infection of a line cultivated in the absence of Cs (reference control). A mean value is established at a concentration of the derivative of 2×10^−6 molar. This anti-HIV activity was measured by the NCI (National Cancer Institute) in Washington in the USA.

Chain of cyclophilin A (P62937 whole entry, species assumed): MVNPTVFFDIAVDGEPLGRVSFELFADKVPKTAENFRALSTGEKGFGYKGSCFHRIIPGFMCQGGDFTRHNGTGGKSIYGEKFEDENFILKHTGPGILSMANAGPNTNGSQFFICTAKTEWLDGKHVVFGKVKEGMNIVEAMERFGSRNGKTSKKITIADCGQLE

Row | Compound | IR (ratio of the IC50 of the MLR test of the derivative over the IC50 of cyclosporin A) [1] | BI (binding index: ratio of the IC50 of the derivative and the IC50 of CsA) (cyclophilin A) | Percentage HIV Protection (HIV in CEM-SS cell line)
1 | C/C=C/C[C@@H](C)[C@@H](O)[C@H]1C(=O)N[C@@H](CC)C(=O)N(C)CC(=O)N(C)[C@@H]([C@@H](C)CC)C(=O)N[C@@H](C(C)C)C(=O)N(C)[C@@H](CC(C)C)C(=O)N[C@@H](C)C(=O)N[C@H](C)C(=O)N(C)[C@@H](CC(C)C)C(=O)N(C)[C@@H](CC(C)C)C(=O)N(C)[C@@H](C(C)C)C(=O)N1C [UNIL 007, MeIle^4-Cs] | >200 | 0.5 | 68.5
2 | EtIle4-Cs [UNIL 013] | >200 | 1.3 | –
3 | EtPhe(4-CH2PO(OMe)2)-Cs [UNIL 014] | >200 | 0.5 | –
4 | EtVal^4-Cs [UNIL 004] | >200 | 1.0 | 74.9
5 | MeVal^4-Cs [UNIL 002] | >200 | 0.6 | 66.4
6 | cyclosporin A [UNIL 001] | 1.0 | 1.0 | –
